Reference: patent US20140235877A1, “COMPOUNDS, METHODS OF PREPARATION AND USE THEREOF FOR TREATING CANCER” (Hong Kong Baptist University, priority 2013, published 2014)
Read-outs that look alike come from different tables or passages of the source.

Key:
[1] = test system: U87; experiment: MTT cell viability assay, U87; details: Homo sapiens, U-87 MG, 72 h, read-out: Cytotoxicity Data IC50 (μM)
Procedure: (§2) All test samples are dissolved in dimethyl sulfoxide (DMSO) to make stock solutions and further diluted in culture medium upon assay. Human cancer cell lines including U87, MDA-MB-231, AGS and HepG2 are cultured in RPMI 1640 or DMEM or DMEM/F12 medium, containing 10% fetal bovine serum. All cell lines are maintained at 37° C. in a humidified environment containing 5% CO2. To determine the effects of the compounds on cell viability, cell number is quantified using a standard colorimetric MTT assay. Cells are placed in a 96-well plate (5×10^3 cells/well) and allowed to attach overnight. Cells are treated with 5, 10, 20, 40 μM of each compound in culture medium for 72 h, respectively. Then, culture media are added with 20 μL of MTT (5 mg/mL stock in PBS) per well and incubated for 4 h at 37° C. Finally, culture media are discarded and 150 μL of DMSO is added to each well to dissolve the purple formazan crystals. Absorbance of the solution is measured using microplate reader spectrophotometer (Bio-Rad Laboratories, Inc., Hercules, Calif.), at a wavelength of 490 nm. Absorbance of untreated cells in medium (negative control) is 100%. Curcumin and paclitaxel are used as the positive control.

[2] = test system: AGS; experiment: MTT cell viability assay, AGS; details: Homo sapiens, 72 h, read-out: Cytotoxicity Data IC50 (μM)
Procedure: as §2

[3] = test system: MDA-MB-231; experiment: MTT cell viability assay, MDA-MB-231; assay type: cell-based; details: Homo sapiens; MDA-MB-231, MTT, 72 h; read-out: Cytotoxicity Data IC50
Description: (§1) Curcumin and paclitaxel are used as the positive control.

[4] = test system: normal liver cells immortalized MIHA; experiment: MTT cytotoxicity assay on normal liver cells immortalized MIHA; assay type: cell-based, human; details: for Survival rate (%): MTT, 72 h
Procedure: The cytotoxicity of Compound A to normal liver cells immortalized MIHA is tested with MTT assay.
For MTT assay, 10 μL MTT solution is added into each well of a 96-well plate. After 2 h incubation at 37° C., 100 μL 10% SDS solution with 10 mM HCl is added to dissolve the purple crystals. After 24 h incubation, the optical density (OD) readings at 595 nm are measured using a Perkin-Elmer Victor plate reader. The values of IC50 are determined using the method described in the cited literatures with some modifications. To determine the IC50 value of a compound in a cell line, the growth inhibitory effect of Compound A at different concentrations is measured by MTT assay. For each tested concentration, 3000 cells suspended in 100 μL culture medium are seeded in each well of a 96-well plate. The well containing 100 μL culture medium without cells is used as a blank. After an overnight culture, Compound A at the designed concentration is added. The OD values of the control group at 0 h (C0) and 72 h (C72) together with the compound treated groups at 72 h (T72) from the MTT assay are measured using the Perkin-Elmer Victor plate reader. The survival rates are calculated using the formula (T72−C0)/(C72−C0)×100%. The inhibition rates are calculated using the following formula [1−(T72−C0)/(C72−C0)]×100% and plotted against logarithmic concentrations by sigmoidal fit. IC50 is defined as the concentration of a compound inhibiting 50% of cell growth. Each IC50 test is performed in triplicate and repeated at least three times.

[5] = test system: HepG2; experiment: MTT cell viability assay, HepG2; assay type: cell-based; details: Homo sapiens; for IC50: HepG2, MTT
Description: as §1

`CC(=O)O[C@H]1C(=O)[C@@]2(C)[C@H]([C@H](OC(=O)c3ccccc3)[C@]3(O)C[C@H](OC(=O)[C@H](O)[C@@H](NC(=O)c4ccccc4)c4ccccc4)C(C)=C1C3(C)C)[C@]1(OC(C)=O)CO[C@@H]1C[C@@H]2O` [Paclitaxel] was tested, and the IC50 [1] was 285 µM and the IC50 [2] was 23.1 µM.

For `COc1cc(/C=C/C(=O)CC(=O)/C=C/c2ccc(O)c(OC)c2)ccc1O` [Curcumin], the IC50 [3] was 3.76 µM, the IC50 [1] was 20.8 µM and the IC50 [2] was 4.38 µM.

For `COc1c(O)c(O)c2c(=O)c3c(CC=C(C)C)c(CC=C(C)C)c(O)c(O)c3oc2c1CC=C(C)C` [Compound A, 1,2,5,6-tetrahydroxy-3-methoxy-4,7,8-tri(3-methylbut-2-enyl)-xanthone], the “Survival rate (%)” value ([4]; compound A 5 μg/mL) was 101.7881%, the “Survival rate (%)” value ([4]; compound A 10 μg/mL) was 85.45% and the “Survival rate (%)” value ([4]; compound A 20 μg/mL) was 85.89%. The “Survival rate (%)” value ([4]; compound A 40 μg/mL) was 68.01%, the “half toxic concentration TC50” value ([4]; from survival rate curve (FIG. 1)) was > 40 µg/mL and the “toxicity on normal cells” value ([4]; result in words) was “low toxicity”. It also gave an IC50 ([5]; read-out: IC50 on HepG2 cells growth) of 5.3 µg/mL, an inhibition at 0.8 µg/mL ([5]; HepG2, compound A 0.8 μg/mL, MTT, read-out: Inhibition rate %) of 7.79% and an inhibition at 1.6 µg/mL ([5]; HepG2, compound A 1.6 μg/mL, MTT, read-out: Inhibition rate %) of 8.16%. The inhibition at 3.125 µg/mL ([5]; HepG2, compound A 3.125 μg/mL, MTT, read-out: Inhibition rate %) was 15%, the inhibition at 6.25 µg/mL ([5]; HepG2, compound A 6.25 μg/mL, MTT, read-out: Inhibition rate %) was 59.2% and the inhibition at 12.5 µg/mL ([5]; HepG2, compound A 12.5 μg/mL, MTT, read-out: Inhibition rate %) was 75.6%. It also gave an inhibition at 25 µg/mL ([5]; HepG2, compound A 25 μg/mL, MTT, read-out: Inhibition rate %) of 76.6%, an inhibition at 50 µg/mL ([5]; HepG2, compound A 50 μg/mL, MTT, read-out: Inhibition rate %) of 69.3% and an inhibition at 100 µg/mL ([5]; HepG2, compound A 100 μg/mL, MTT, read-out: Inhibition rate %) of 74.3%.

`COc1c(OC)c(O)c2c(=O)c3c(CC=C(C)C)c(CC=C(C)C)c(O)c(O)c3oc2c1CC=C(C)C` [Compound B] was tested, and the IC50 ([5]; 72 h, read-out: Cytotoxicity Data IC50) was 20.3 µM, the IC50 [3] was 70.5 µM and the IC50 [1] was 55.3 µM. It also gave an IC50 [2] of 31.1 µM.
